Test results from ChEMBL document CHEMBL1127065, “Nucleoside conjugates. 13. Synthesis and antitumor activity of 1-beta-D-arabinofuranosylcytosine conjugates of thioether lipids with improved water solubility” (J Med Chem, 1993).
Values joined by “and” are separate entries in the source; they are usually repeats but may differ in a detail not shown here. Identical values can stand only once.

How the values were obtained:
[1] = Water solubility was determined by UV absorption at 273 nm; type: ADME
[2] = system: Mus musculus; assay: Percent increase in life span at 400 mg/kg (437 umol) per day; type: functional
[3] = system: Mus musculus; assay: Median T/C calculated based on survivors at 400 mg/kg (437 umol) per day against Ip-implanted L1210 lymphoid leukemia mice; type: functional
[4] = system: Mus musculus; assay: Number of survivors in mice bearing ip-implanted L1210 lymphoid leukemia after 45 day; type: functional
[5] = system: Mus musculus; assay: Percent increase in life span at 150 mg/kg (164 umol) per day; type: functional
[6] = system: Mus musculus; assay: Median T/C calculated based on survivors at 150 mg/kg (164 umol) per day; type: functional
[7] = system: Mus musculus; assay: Percent increase in life span at 150 mg/kg (150 umol) per day; type: functional
[8] = system: Mus musculus; assay: Percent increase in life span at 400 mg/kg (400 umol) per day; type: functional
[9] = system: Mus musculus; assay: Median T/C calculated based on survivors at 150 mg/kg (150 umol) per day against Ip-implanted L1210 lymphoid leukemia mice; type: functional
[10] = system: Mus musculus; assay: Median T/C calculated based on survivors at 400 mg/kg (400 umol) per day against Ip-implanted L1210 lymphoid leukemia mice; type: functional
[11] = system: Mus musculus; assay: Percent increase in life span at 150 mg/kg (154 umol) per day; type: functional
[12] = system: Mus musculus; assay: Percent increase in life span at 300 mg/kg (309 umol) per day; type: functional
[13] = system: Mus musculus; assay: Median T/C calculated based on survivors at 150 mg/kg (154 umol) per day against Ip-implanted L1210 lymphoid leukemia mice; type: functional
[14] = system: Mus musculus; assay: Median T/C calculated based on survivors at 300 mg/kg (309 umol) per day against Ip-implanted L1210 lymphoid leukemia mice; type: functional
[15] = system: Mus musculus; assay: Median T/C calculated based on survivors at 300 mg/kg (318 umol) per day against Ip-implanted L1210 lymphoid leukemia mice; type: functional
[16] = system: Mus musculus; assay: Percent increase in life span at 300 mg/kg (318 umol) per day; type: functional
[17] = system: Mus musculus; assay: Percent increase in life span at 400 mg/kg (389 umol) per day against Ip-implanted L1210 lymphoid leukemia mice; type: functional
[18] = system: Mus musculus; assay: Median T/C calculated based on survivors at 400 mg/kg (389 umol) per day; type: functional
[19] = system: Mus musculus; assay: Change in weight in mice bearing ip-implanted L1210 lymphoid leukemia on day 8 at 300 mg/kg or 309 umol/kg per day; type: functional
[20] = system: Mus musculus; assay: Percent increase in life span at 400 mg/kg (411 umol) per day; type: functional
[21] = system: Mus musculus; assay: Median T/C calculated based on survivors at 400 mg/kg (411 umol) per day against Ip-implanted L1210 lymphoid leukemia mice; type: functional
[22] = system: Mus musculus; assay: Percent increase in life span at 200 mg/kg (218 umol) per day; type: functional
[23] = system: Mus musculus; assay: Percent increase in life span at 300 mg/kg (328 umol) per day; type: functional
[24] = system: Mus musculus; assay: Median T/C calculated based on survivors at 200 mg/kg (218 umol) per day; type: functional
[25] = system: Mus musculus; assay: Median T/C calculated based on survivors at 300 mg/kg (328 umol) per day against Ip-implanted L1210 lymphoid leukemia mice; type: functional
[26] = system: Mus musculus; assay: Percent increase in life span at 300 mg/kg (300 umol) per day; type: functional
[27] = system: Mus musculus; assay: Median T/C calculated based on survivors at 300 mg/kg (300 umol) per day against Ip-implanted L1210 lymphoid leukemia mice; type: functional
[28] = system: Mus musculus; assay: Percent increase in life span at 100 mg/kg (411 umol) per day; type: functional
[29] = system: Mus musculus; assay: Percent increase in life span at 200 mg/kg (822 umol) per day; type: functional
[30] = system: Mus musculus; assay: Percent increase in life span at 71 mg/kg (292 umol) per day; type: functional
[31] = system: Mus musculus; assay: Change in weight in mice bearing ip-implanted L1210 lymphoid leukemia on day 8 at 100 mg/kg or 411 umol/kg per day; type: functional
[32] = system: Mus musculus; assay: Change in weight in mice bearing ip-implanted L1210 lymphoid leukemia on day 8 at 200 mg/kg or 822 umol/kg per day; type: functional
[33] = system: Mus musculus; assay: Change in weight in mice bearing ip-implanted L1210 lymphoid leukemia on day 8 at 71 mg/kg or 292 umol/kg per day; type: functional
[34] = system: Mus musculus; assay: Median T/C calculated based on survivors at 100 mg/kg (411 umol) per day against Ip-implanted L1210 lymphoid leukemia mice; type: functional
[35] = system: Mus musculus; assay: Median T/C calculated based on survivors at 200 mg/kg (822 umol) per day against Ip-implanted L1210 lymphoid leukemia mice; type: functional
[36] = system: Mus musculus; assay: Median T/C calculated based on survivors at 71 mg/kg (292 umol) per day against Ip-implanted L1210 lymphoid leukemia mice; type: functional
[37] = system: Mus musculus; assay: Percent increase in life span at 300 mg/kg (292 umol) per day; type: functional
[38] = system: Mus musculus; assay: Number of survivors in mice bearing ip-implanted L1210 lymphoid leukemia after 45 day against Ip-implanted L1210 lymphoid leukemia mice; type: functional
[39] = system: Mus musculus; assay: Change in weight in mice bearing ip-implanted L1210 lymphoid leukemia on day 8 at 300 mg/kg or 292 umol/kg per day; type: functional
[40] = system: Mus musculus; assay: Median T/C calculated based on survivors at 150 mg/kg (146 umol) per day against Ip-implanted L1210 lymphoid leukemia mice; type: functional
[41] = system: Mus musculus; assay: Median T/C calculated based on survivors at 300 mg/kg (292 umol) per day against Ip-implanted L1210 lymphoid leukemia mice; type: functional

## CCCCCCCCCCCCCCSCC(COP(=O)([O-])OP(=O)([O-])OC[C@H]1OC(n2ccc(N)nc2=O)[C@@H](O)[C@@H]1O)OC(=O)CCCCCCCCCCC.[Na+].[Na+] (some centres not stated)
[1]
  solubility: > 50 mM
[2]
  ILS at 400 mg/kg: 129%
[3]
  Median T/C: 16
[4]
  Survivors: 0

## CCCCCCCCCCCCCCCC(=O)OC(COP(=O)([O-])OP(=O)([O-])OC[C@H]1OC(n2ccc(N)nc2=O)[C@@H](O)[C@@H]1O)CSCCCCCCCCCC.[Na+].[Na+] (some centres not stated)
[1]
  solubility: > 58 mM
[5]
  ILS at 150 mg/kg: 200%
[2]
  ILS at 400 mg/kg: 114%
[6]
  Median T/C: 21
[3]
  Median T/C: 15
[4]
  Survivors: 0

## CCCCCCCCCCCCCCCCCCSCC(COP(=O)([O-])OP(=O)([O-])OC[C@H]1OC(n2ccc(N)nc2=O)[C@@H](O)[C@@H]1O)OC(=O)CCCCCCCCCCCCC.[Na+].[Na+] (some centres not stated)
[1]
  solubility: > 62 mM
[7]
  ILS at 150 mg/kg: > 464%
[8]
  ILS at 400 mg/kg: 213%
[9]
  Median T/C: 39.5
[10]
  Median T/C: 25
[4]
  Survivors: 1 and 3

## CCCCCCCCCCCCCCCCCCSCC(COP(=O)([O-])OP(=O)([O-])OC[C@H]1OC(n2ccc(N)nc2=O)[C@@H](O)[C@@H]1O)OC(=O)CCCCCCCCCCC.[Na+].[Na+] (some centres not stated)
[1]
  solubility: > 54 mM
[11]
  ILS at 150 mg/kg: 371%
[12]
  ILS at 300 mg/kg: 213%
[13]
  Median T/C: 33
[14]
  Median T/C: 25
[4]
  Survivors: 1 and 2

## CCCCCCCCCCCCCCSCC(COP(=O)([O-])OP(=O)([O-])OC[C@H]1OC(n2ccc(N)nc2=O)[C@@H](O)[C@@H]1O)OC(=O)CCCCCCCCCCCCC.[Na+].[Na+] (some centres not stated)
[1]
  solubility: > 60 mM
[15]
  Median T/C: 24
[16]
  ILS at 300 mg/kg: 243%
[4]
  Survivors: 2

## CCCCCCCCCCCCCCCCCC(=O)OC(COP(=O)([O-])OP(=O)([O-])OC[C@H]1OC(n2ccc(N)nc2=O)[C@@H](O)[C@@H]1O)CSCCCCCCCCCCCCCCCC.[Na+].[Na+] (some centres not stated)
[1]
  solubility: 0.2 mM
[17]
  ILS at 400 mg/kg: > 521%
[18]
  Median T/C: >43.5
[4]
  Survivors: 3

## CCCCCCCCCCCCCCCCSCC(COP(=O)([O-])OP(=O)([O-])OC[C@H]1OC(n2ccc(N)nc2=O)[C@@H](O)[C@@H]1O)OC(=O)CCCCCCCCCCC.[Na+].[Na+] (some centres not stated)
[1]
  solubility: > 64 mM
[15]
  Median T/C: 19.5
[16]
  ILS at 300 mg/kg: 178%
[4]
  Survivors: 2

## CCCCCCCCCCCCCCCCSCC(COP(=O)([O-])OP(=O)([O-])OC[C@H]1OC(n2ccc(N)nc2=O)[C@@H](O)[C@@H]1O)OC(=O)CCCCCCCCCCCCC.[Na+].[Na+] (some centres not stated)
[1]
  solubility: > 53 mM
[12]
  ILS at 300 mg/kg: 386%
[19]
  Weight change: -1.8 g mouse-1
[14]
  Median T/C: 34
[4]
  Survivors: 2

## CCCCCCCCCCCCCCCC(=O)OC(COP(=O)([O-])OP(=O)([O-])OC[C@H]1OC(n2ccc(N)nc2=O)[C@@H](O)[C@@H]1O)CSCCCCCCCCCCCCCC.[Na+].[Na+] (some centres not stated)
[1]
  solubility: 1.5 mM
[11]
  ILS at 150 mg/kg: 321%
[20]
  ILS: >421% and 393%
[19]
  Weight change: 0.5 g mouse-1
[13]
  Median T/C: 29.5
[21]
  Median T/C: >36.5 and 34.5
[4]
  Survivors: 3 and 1 and 2

## CCCCCCCCCCCCCC(=O)OC(COP(=O)([O-])OP(=O)([O-])OC[C@H]1OC(n2ccc(N)nc2=O)[C@@H](O)[C@@H]1O)CSCCCCCCCCCCCC.[Na+].[Na+] (some centres not stated)
[1]
  solubility: > 68 mM
[22]
  ILS at 200 mg/kg: 463%
[23]
  ILS at 300 mg/kg: 81%
[24]
  Median T/C: >45
[25]
  Median T/C: 14.5

## CCCCCCCCCCCCCCCCSCC(COP(=O)([O-])OP(=O)([O-])OC[C@H]1OC(n2ccc(N)nc2=O)[C@@H](O)[C@@H]1O)OC(=O)CCCCCCCCCCCCCCC.[Na+].[Na+] (some centres not stated)
[1]
  solubility: 0.2 mM
[26]
  ILS at 300 mg/kg: > 436%
[27]
  Median T/C: 37.5
[4]
  Survivors: 2

## Nc1ccn([C@@H]2O[C@H](CO)[C@@H](O)[C@@H]2O)c(=O)n1 [CYTARABINE]
[28]
  ILS at 100 mg/kg: 129%
[29]
  ILS at 200 mg/kg: 100%
[30]
  ILS at 71 mg/kg: 23%
[31]
  Weight change: -3.1 g mouse-1
[32]
  Weight change: -6.1 g mouse-1
[33]
  Weight change: -3.8 g mouse-1
[34]
  Median T/C: 16
[35]
  Median T/C: 14
[36]
  Median T/C: 8
[4]
  Survivors: 0

## CCCCCCCCCCCCCCCCCCSCC(COP(=O)([O-])OP(=O)([O-])OC[C@H]1OC(n2ccc(N)nc2=O)[C@@H](O)[C@@H]1O)OC(=O)CCCCCCCCCCCCCCC.[Na+].[Na+] (some centres not stated) [CYTOROS]
[1]
  solubility: 0.2 mM
[37]
  ILS: >543% and >293%
[38]
  Survivors: 4
[39]
  Weight change: -2.4 g mouse-1
[40]
  Median T/C: 27.5
[41]
  Median T/C: >45
[4]
  Survivors: 1
